Source: publication PMC10207986, “Computational high-throughput screening and in vitro approaches identify CB-006-3; A novel PI3K-BRAF^V600E dual targeted inhibitor against melanoma” (Oncology Research, 2022)

Key:
Assay type in all cases: biochemical
PI3KCG (PI3K gamma) = biological target: T1, PI3KCG (PI3K gamma) (Homo sapiens, UniProt P48736); test: HTRF PI3K kinase assay; settings: PIP2 substrate, ATP; 10 min pre-incubation, 30 min, room temperature
T1 construct: gene PIK3CG; enzyme used with Merck Millipore PI3K HTRF kit
T1 sequence (P48736 whole entry): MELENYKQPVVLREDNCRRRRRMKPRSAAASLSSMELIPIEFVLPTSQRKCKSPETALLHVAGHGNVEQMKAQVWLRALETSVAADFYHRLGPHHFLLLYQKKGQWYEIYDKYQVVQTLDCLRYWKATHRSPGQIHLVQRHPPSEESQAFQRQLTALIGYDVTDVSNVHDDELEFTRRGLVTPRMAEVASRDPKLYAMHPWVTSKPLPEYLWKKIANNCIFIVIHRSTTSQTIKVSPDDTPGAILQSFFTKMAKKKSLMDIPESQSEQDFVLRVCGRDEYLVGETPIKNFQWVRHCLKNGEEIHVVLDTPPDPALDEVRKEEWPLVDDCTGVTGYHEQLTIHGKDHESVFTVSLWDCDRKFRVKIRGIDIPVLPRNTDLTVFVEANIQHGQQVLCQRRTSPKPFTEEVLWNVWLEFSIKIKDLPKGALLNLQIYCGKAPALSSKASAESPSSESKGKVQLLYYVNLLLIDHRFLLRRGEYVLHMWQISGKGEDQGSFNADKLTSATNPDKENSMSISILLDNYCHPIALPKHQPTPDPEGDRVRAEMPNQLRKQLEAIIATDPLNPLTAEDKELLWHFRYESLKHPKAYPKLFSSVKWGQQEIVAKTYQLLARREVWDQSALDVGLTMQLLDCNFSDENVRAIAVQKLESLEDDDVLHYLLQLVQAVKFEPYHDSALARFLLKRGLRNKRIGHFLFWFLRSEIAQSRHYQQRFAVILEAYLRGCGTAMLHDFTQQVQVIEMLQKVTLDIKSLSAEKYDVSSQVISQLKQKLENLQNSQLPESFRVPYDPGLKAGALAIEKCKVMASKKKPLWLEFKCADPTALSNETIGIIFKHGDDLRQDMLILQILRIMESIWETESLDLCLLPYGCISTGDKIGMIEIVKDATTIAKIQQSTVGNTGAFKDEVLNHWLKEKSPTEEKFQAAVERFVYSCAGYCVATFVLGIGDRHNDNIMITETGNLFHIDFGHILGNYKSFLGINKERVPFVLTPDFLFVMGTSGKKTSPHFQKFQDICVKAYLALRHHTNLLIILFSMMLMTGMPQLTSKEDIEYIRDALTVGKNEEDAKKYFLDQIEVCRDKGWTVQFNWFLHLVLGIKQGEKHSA

BRAF^V600E (B-Raf^V600E) = biological target: T2, BRAF^V600E (B-Raf^V600E) (Homo sapiens, UniProt P15056, V600E); test: luminescence kinase assay (Kinase-Glo Max); settings: 500 µM ATP, Raf substrate, 45 min, 30°C
T2 construct: enzyme of BPS Bioscience B-Raf V600E assay kit
T2 sequence (P15056 2-766 V600E): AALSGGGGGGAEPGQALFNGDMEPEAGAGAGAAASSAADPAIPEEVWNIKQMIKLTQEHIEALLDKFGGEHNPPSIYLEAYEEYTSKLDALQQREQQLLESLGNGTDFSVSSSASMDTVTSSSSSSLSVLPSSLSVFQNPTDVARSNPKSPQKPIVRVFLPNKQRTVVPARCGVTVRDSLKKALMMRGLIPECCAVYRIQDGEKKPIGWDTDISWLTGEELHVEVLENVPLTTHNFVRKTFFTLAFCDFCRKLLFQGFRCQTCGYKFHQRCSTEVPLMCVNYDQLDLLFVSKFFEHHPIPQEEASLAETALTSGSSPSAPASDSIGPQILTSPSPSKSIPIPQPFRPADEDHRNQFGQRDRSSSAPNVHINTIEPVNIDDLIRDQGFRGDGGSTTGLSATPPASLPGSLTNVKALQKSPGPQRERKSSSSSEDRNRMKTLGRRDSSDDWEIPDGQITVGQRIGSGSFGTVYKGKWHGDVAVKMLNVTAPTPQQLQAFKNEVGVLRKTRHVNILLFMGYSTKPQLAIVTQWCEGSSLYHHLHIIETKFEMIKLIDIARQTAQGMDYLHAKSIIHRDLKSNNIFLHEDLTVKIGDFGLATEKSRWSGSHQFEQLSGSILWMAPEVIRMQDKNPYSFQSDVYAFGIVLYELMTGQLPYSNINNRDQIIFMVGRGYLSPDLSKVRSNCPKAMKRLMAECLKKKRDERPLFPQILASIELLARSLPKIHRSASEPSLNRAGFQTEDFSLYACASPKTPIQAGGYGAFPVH

PI3KCD (PI3K delta) = biological target: T3, PI3KCD (PI3K delta) (Homo sapiens, UniProt O00329); test: HTRF PI3K kinase assay; settings: PIP2 substrate, ATP; 10 min pre-incubation, 30 min, room temperature
T3 construct: gene PIK3CD; enzyme used with Merck Millipore PI3K HTRF kit; with Phosphatidylinositol 3-kinase regulatory subunit alpha
T3 sequence (O00329 whole entry): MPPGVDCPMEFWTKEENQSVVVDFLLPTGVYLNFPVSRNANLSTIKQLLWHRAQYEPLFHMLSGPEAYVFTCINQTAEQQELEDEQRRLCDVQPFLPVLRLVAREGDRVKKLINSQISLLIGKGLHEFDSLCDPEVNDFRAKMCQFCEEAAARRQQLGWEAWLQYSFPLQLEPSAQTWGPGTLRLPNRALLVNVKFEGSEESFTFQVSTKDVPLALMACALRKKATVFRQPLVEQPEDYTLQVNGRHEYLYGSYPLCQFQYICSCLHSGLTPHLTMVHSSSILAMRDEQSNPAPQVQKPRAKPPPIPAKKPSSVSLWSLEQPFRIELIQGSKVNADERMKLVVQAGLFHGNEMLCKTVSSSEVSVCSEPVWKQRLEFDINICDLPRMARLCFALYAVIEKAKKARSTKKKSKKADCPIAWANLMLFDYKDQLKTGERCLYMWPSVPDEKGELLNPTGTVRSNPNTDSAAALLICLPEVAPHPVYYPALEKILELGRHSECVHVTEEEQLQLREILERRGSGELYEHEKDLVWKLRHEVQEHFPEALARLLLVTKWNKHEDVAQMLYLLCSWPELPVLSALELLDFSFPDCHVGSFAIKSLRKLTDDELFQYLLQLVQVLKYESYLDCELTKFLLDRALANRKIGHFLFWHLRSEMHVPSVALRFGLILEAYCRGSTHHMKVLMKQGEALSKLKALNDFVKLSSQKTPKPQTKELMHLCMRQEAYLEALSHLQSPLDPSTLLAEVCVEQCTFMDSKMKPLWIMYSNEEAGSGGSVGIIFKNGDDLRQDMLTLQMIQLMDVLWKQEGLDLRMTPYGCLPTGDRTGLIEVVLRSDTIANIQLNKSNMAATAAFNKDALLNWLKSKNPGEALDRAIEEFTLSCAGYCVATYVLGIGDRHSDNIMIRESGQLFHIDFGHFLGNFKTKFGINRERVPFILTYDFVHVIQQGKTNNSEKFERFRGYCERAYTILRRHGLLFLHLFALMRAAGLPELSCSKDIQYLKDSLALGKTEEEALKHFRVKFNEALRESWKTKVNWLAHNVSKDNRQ
T3 sequence (P27986 2-724 partner): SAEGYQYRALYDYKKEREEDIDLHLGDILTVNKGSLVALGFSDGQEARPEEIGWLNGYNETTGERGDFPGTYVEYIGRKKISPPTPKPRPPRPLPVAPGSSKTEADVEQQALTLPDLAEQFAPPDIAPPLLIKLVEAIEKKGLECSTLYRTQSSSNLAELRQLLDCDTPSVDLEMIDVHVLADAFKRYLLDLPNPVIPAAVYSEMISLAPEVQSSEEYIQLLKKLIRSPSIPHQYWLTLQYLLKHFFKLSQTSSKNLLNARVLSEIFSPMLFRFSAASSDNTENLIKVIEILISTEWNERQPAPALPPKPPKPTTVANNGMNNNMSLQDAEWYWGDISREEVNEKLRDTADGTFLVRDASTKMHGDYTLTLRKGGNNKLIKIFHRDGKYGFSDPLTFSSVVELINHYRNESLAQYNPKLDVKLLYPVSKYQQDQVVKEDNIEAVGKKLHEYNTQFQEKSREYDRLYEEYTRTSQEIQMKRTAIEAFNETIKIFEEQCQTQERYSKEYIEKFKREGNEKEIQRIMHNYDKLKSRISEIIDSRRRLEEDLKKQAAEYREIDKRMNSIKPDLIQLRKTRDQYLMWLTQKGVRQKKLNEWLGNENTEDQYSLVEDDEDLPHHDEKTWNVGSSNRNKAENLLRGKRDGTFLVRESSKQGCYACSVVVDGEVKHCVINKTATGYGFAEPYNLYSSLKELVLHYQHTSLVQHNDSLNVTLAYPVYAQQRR

IC50 (PI3KCG (PI3K gamma)): 75.8 nM
IC50 (BRAF^V600E (B-Raf^V600E)): 70.8 nM
IC50 (PI3KCD (PI3K delta)): 160 nM
Compound: Cc1cc(C)c(CC(=O)N2C[C@@H]3CC(=O)NCCN(C)C(=O)c4cccn(c4=O)Cc4cn(nn4)[C@@H]3C2)c(C)c1 (relative stereo) [CB-006-3, rel-(17aS,20aS)-19-(mesitylacetyl)-12-methyl-12,13,14,15,17,17a,18,19,20,20a-decahydro-6,10-methano-1,4-methenopyrrolo[3,4-r] [1,2,3,6,12,15]hexaazacyclononadecine-11,16,21-trione]
